Results as given in patent US20200054653A1, “ACEFAPC FOR THE TREATMENT OF ACETYLCHOLINE-DEPENDENT DISEASES” (LIPTHER, priority 2017, published 2020).
Read-outs that look alike come from different tables or passages of the source.

Key:
[1] = biological target: microbial (Streptomyces chromofuscus) phospholipase D (Streptomyces chromofuscus, UniProt Q8KRU5); assay: Acellular incubation of AceFaPC with phospholipase D, acetylcholine detected by mass spectrometry; format: biochemical; conditions: Tris-HCl pH 8, one hour at 37° C.
Procedure: Acellular incubation of AceFaPC was performed in the presence of a microbial (Streptomyces chromofuscus) phospholipase D in a Tris-HCl pH 8 (brain pH) buffer for one hour at 37° C. Following incubation, phospholipase D was destroyed by adding ethanol. After centrifugation, the aqueous ethanolic mixture was separated and evaporated to dryness. The residue was dissolved in the mixture 95% acetonitrile/5% ammonium formate and then filtered by centrifugation. Acetylcholine was detected in the solution by mass spectrometry. Acetylcholine was detected on the basis of both its molecular mass (146) and that of its main fragmentation product (87: majority ion corresponding to the radical CH3—COO—CH2—CH2—) (FIG. 2).
In these acellular experiments, two substrates were used considering the lowest unsaturation for acyl in the sn-2 position, namely the oleoyl radical (R2—COO—, FIG. 1): AceOIPC and the highest with the docosahexaenoyl radical: AceDoPC®. For AceOIPC, approximately 5% of the released choline was converted to acetylcholine. For AceDoPC®, this conversion reached 36%. The reasons for this difference are unknown at this stage of the experiment. […]

[2] = tested on: brain lesions after ischemic stroke; conditions: injected into rats after ischemic stroke; cited from earlier work
[3] = tested on: reconstituted blood-brain barrier; conditions: compared with non-esterified DHA or PC-DHA; cited from earlier work
[4] = rat, cited from earlier work

Sequence of microbial (Streptomyces chromofuscus) phospholipase D (Q8KRU5 47-556): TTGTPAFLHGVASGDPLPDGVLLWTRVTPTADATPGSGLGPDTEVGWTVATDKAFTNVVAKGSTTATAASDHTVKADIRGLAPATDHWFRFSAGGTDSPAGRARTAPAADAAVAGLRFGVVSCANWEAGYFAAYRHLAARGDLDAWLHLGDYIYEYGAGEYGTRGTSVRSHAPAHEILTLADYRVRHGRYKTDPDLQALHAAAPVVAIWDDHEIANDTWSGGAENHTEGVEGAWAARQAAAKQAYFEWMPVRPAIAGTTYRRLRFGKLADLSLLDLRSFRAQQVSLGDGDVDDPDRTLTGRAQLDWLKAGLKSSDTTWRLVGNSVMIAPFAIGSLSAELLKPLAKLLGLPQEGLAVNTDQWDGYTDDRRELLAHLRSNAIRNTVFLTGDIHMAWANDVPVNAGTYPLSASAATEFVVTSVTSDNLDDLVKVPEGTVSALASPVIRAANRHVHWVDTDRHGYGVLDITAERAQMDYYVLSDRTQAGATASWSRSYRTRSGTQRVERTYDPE

Row | SMILES | released choline converted to acetylcholine [1] | spread of brain lesions [2] | passage of a reconstituted blood-brain barrier [3] | radioactivity of AceDoPC in brain, % of the total injected ([4]; after 1 hour) [%] | radioactivity of AceDoPC in brain, % of the total injected ([4]; after 24 hours) [%] | radioactivity of AceDoPC in brain, % of the total injected ([4]; after 48 hours) [%]
1 | CCCCCCCCC=CCCCCCCCC(=O)OC(COC(C)=O)COP(=O)([O-])OCC[N+](C)(C)C (stereo not shown) [AceOIPC] | approximately 5% |  |  |  |  | 
2 | CC/C=C\C/C=C\C/C=C\C/C=C\C/C=C\C/C=C\CCC(=O)O[C@H](COC(C)=O)COP(=O)([O-])OCC[N+](C)(C)C [AceDoPC, 1-acetyl,2-docosahexaenoyl-phosphatidylcholine] | 36% | prevented the spread of brain lesions | promoted | 80 | 30 | 10
